Tested on: ATDC5 cells
Test: Induction of chondrogenic differentiation of ATDC5 cells (Alcian blue staining, proteoglycan amount)
Format: cell-based
Settings: ATDC5 cells incubated 24 days; Alcian blue dye measured at 620 nm; FK506 1-1000 ng/ml
Method: The inducing activity by FK506 Substance on chondrogenic differentiation was evaluated in accordance with the below-mentioned method. (1) The ATDC5 cell line provided by RIKEN Cell Bank (Tsukuba, Japan) was grown in a 1:1 mixture of Dulbecco's modified Eagle's medium and Ham's F12 medium (Nikken Biomedical Laboratory, Kyoto, Japan) supplemented with 10 % heat-inactivated fetal bovine serum (Intergen, Purchase, N.Y.). […] (2) The above ATDC5 cells were plated in 12-multiwell plastic plate at a density of 1×10^5 cells/well in the medium. After 4 hr, the medium was replaced with fresh medium containing FK506 or Cyclosporin A (CsA), and the culture was continued for a 24 days with medium change every 2 or 3 days. Cells were fixed with methanol and stained 0.1% Alcian blue (Sigma Chemical Co., St. Louis, Mo.) dissolved in 0.1 M hydrochloric acid for 16 hr at room temperature. Cells were then rinsed three times with distilled water, and the amount of cell-associated dye was measured at 620 nm after extraction with 6 M guanidine-HCl (300 μl/well). ATDC5 cells were incubated with FK506 or CsA for 24 days and the amount of proteoglycan was assayed.

Compound	inducing activity on chondrogenic differentiation (differentiation into chondrocyte; amount of proteoglycan)
C=CC[C@@H]1/C=C(\C)C[C@H](C)C[C@H](OC)[C@H]2O[C@@](O)(C(=O)C(=O)N3CCCC[C@H]3C(=O)O[C@H](/C(C)=C/[C@@H]3CC[C@@H](O)[C@H](OC)C3)[C@H](C)[C@@H](O)CC1=O)[C@H](C)C[C@@H]2OC [FK506, 17-allyl-1,14-dihydroxy-12-[2-(4-hydroxy-3-methoxycyclohexyl) -1-methylvinyl]-23,25-dimethoxy-13,19,21,27-tetramethyl-11, 28-dioxa-4-azatricyclo [22.3.1.0^4,9]octacos-18-ene-2,3,10,16-tetraone]	induced differentiation into chondrocyte in a concentration-dependent manner
Cyclosporin A [CsA]	did not induce the differentiation
